Values quoted from earlier work in patent US6900339B2, “Bryostatin composition and bryostatin acquisition methodologies” (The University of North Carolina at Chapel Hill, priority 2002, dated 2005).

Test system: leukemia
Conditions: background statement

**Q.** Which effectiveness against leukemia does the source give for CCC/C=C/C=C/C(=O)O[C@H]1/C(=C/C(=O)OC)C[C@H]2C[C@H]([C@@H](C)O)OC(=O)C[C@H](O)C[C@@H]3C[C@H](OC(C)=O)C(C)(C)[C@](O)(C[C@@H]4C/C(=C/C(=O)OC)C[C@H](/C=C/C(C)(C)[C@]1(O)O2)O4)O3 [bryostatin 1] here?
**A.** Its effectiveness against leukemia is “particularly effective”.
